Experimental data from patent US11178873B2, “Cyclic N-carboxamide compounds useful as herbicides” (FMC CORPORATION, priority 2015, dated 2021).

Tests used:
Format in all cases: in vivo
Conditions in all cases: 1000 g ai/ha, 0 to 100 scale, 0 no effect, 100 complete control
[1] = test system: wheat (Triticum aestivum); test: Test A postemergence, wheat
Source text: (§1) Seeds of plant species selected from barnyardgrass (Echinochloa crus-galli), crabgrass, large (large crabgrass, Digitaria sanguinalis), kochia (Kochia scoparia), ragweed (common ragweed, Ambrosia elatior), morningglory (Ipomoea spp.), velvetleaf (Abutilon theophrasti), ryegrass, Italian (Italian ryegrass, Lolium multiflorum), foxtail, giant (giant foxtail, Setaria faberii), wheat (Triticum aestivum), corn (Zea mays), and pigweed (Amaranthus retroflexus), were planted into a blend of loam soil and sand and treated preemergence with a directed soil spray using test chemicals formulated in a non-phytotoxic solvent mixture which included a surfactant. At the same time, plants selected from these crop and weed species and also blackgrass (Alopecurus myosuroides), and galium (catchweed bedstraw, Galium aparine), were planted in pots containing the same blend of loam soil and sand and treated with postemergence applications of test chemicals formulated in the same manner. Plants ranged in height from 2 to 10 cm and were in the one- to two-leaf stage for the postemergence treatment. Treated plants and untreated controls were maintained in a greenhouse for approximately 10 d, after which time all treated plants were compared to untreated controls and visually evaluated for injury. Plant response ratings, summarized in Table A, are based on a 0 to 100 scale where 0 is no effect and 100 is complete control. A dash (-) response means no test result.

[2] = test system: barnyardgrass (Echinochloa crus-galli); test: Test A postemergence, barnyardgrass
Source text: as §1

[3] = test system: ragweed (common ragweed, Ambrosia elatior); test: Test A postemergence, ragweed
Source text: as §1

[4] = test system: foxtail, giant (giant foxtail, Setaria faberii); test: Test A postemergence, foxtail, giant
Source text: as §1

[5] = test system: foxtail, giant (giant foxtail, Setaria faberii); test: Test A preemergence, foxtail, giant
Source text: as §1

kochia (Kochia scoparia) [6] = test: Test A preemergence, kochia
Source text: as §1

[7] = test system: ryegrass, Italian (Italian ryegrass, Lolium multiflorum); test: Test A postemergence, ryegrass, Italian
Source text: as §1

[8] = test system: blackgrass (Alopecurus myosuroides); test: Test A postemergence, blackgrass
Source text: as §1

[9] = test system: pigweed (Amaranthus retroflexus); test: Test A postemergence, pigweed
Source text: as §1

[10] = test system: ryegrass, Italian (Italian ryegrass, Lolium multiflorum); test: Test A preemergence, ryegrass, Italian
Source text: as §1

[11] = test system: pigweed (Amaranthus retroflexus); test: Test A preemergence, pigweed
Source text: as §1

[12] = test system: ragweed (common ragweed, Ambrosia elatior); test: Test A preemergence, ragweed
Source text: as §1

[13] = test system: galium (catchweed bedstraw, Galium aparine); test: Test A postemergence, galium
Source text: as §1

corn (Zea mays) = test: Test A postemergence, corn
Source text: as §1

kochia (Kochia scoparia) [14] = test: Test A postemergence, kochia
Source text: as §1

[15] = test system: barnyardgrass (Echinochloa crus-galli); test: Test A preemergence, barnyardgrass
Source text: as §1

SMILES | Plant response rating, Wheat [1] | Plant response rating, Barnyardgrass [2] | Plant response rating, Ragweed [3] | Plant response rating, Foxtail, Giant [4] | Plant response rating, Foxtail, Giant [5] | Plant response rating, Kochia (kochia (Kochia scoparia) [6]) | Plant response rating, Ryegrass, Italian [7] | Plant response rating, Blackgrass [8] | Plant response rating, Pigweed [9] | Plant response rating, Ryegrass, Italian [10] | Plant response rating, Pigweed [11] | Plant response rating, Ragweed [12] | Plant response rating, Galium [13] | Plant response rating, Corn (corn (Zea mays)) | Plant response rating, Kochia (kochia (Kochia scoparia) [14]) | Plant response rating, Barnyardgrass [15]
CN1CC(c2ccc(C(F)(F)F)cc2)N(C(=O)Nc2cccc(F)c2F)C1=O (stereo not shown) [Compound 14] | 0 | 0 | 0 | 0 | 70 | 0 | 0 | 0 | 0 | 0 | 0 | 0 | 0 | 0 | 0 | 20
Cc1ccc(C2CCC(=O)N2C(=O)Nc2ccccc2F)cc1 (stereo not shown) [Compound 19] | 0 | 0 | 0 | 0 | 40 | 20 | 0 | 0 | 0 | 0 | 70 | 0 | 0 | 0 | 0 | 40
Cc1ccc(C2CCC(=O)N2C(=O)Nc2ccccc2C(F)(F)F)cc1 (stereo not shown) [Compound 20] | 0 | 0 | 0 | 0 | 20 | 0 | 0 | 0 | 0 | 0 | 0 | 0 | 0 | 0 | 0 | 0
Cc1ccc(C2CCC(=O)N2C(=O)Nc2ccc(F)c(F)c2F)cc1 (stereo not shown) [Compound 21] | 0 | 0 | 0 | 0 | 70 | 0 | 0 | 0 | 0 | 0 | 0 | 0 | 0 | 0 | 0 | 20
